Measured values published in PMC9002334 (Virology, 2022).

Legend:
SARS-CoV-2 M^pro [1] = molecular target: T1, SARS-CoV-2 M^pro (Severe acute respiratory syndrome coronavirus 2, UniProt P0DTD1); conditions: ref Zhu and Xie, 2020; cited from earlier work
SARS-CoV-2 M^pro [2] = molecular target: T1, SARS-CoV-2 M^pro; assay: Inhibition assay of the SARS-CoV-2 M^pro activity; assay type: biochemical
HCoV-229E = assay: microbe, parasite or virus in culture; assay type: cell-based, Human coronavirus 229E
[3] = after the intake of 150 mg in 1 h; ref de Whalley et al., 1990; Olthof et al., 2000; cited from earlier work

Structure (SMILES) | Inhibition of the SARS-CoV-2 M^pro activity (SARS-CoV-2 M^pro [1]) | Inhibitive effect on the M^pro activity at 100 μM (SARS-CoV-2 M^pro [2]) | Concentration at which inhibition of HCoV-229E replication starts (HCoV-229E) [µM] | other results
Oc1cc(O)c2c(c1)O[C@H](c1ccc(O)c(O)c1)[C@H](O)C2 [(−)-epicatechin] | could not | did not inhibit | 20 | Inhibitory effect on the M^pro activity (SARS-CoV-2 M^pro [2]; range of concentrations from 0 to 200 μM): did not show an inhibitory effect
O=C(O[C@@H]1Cc2c(O)cc(O)cc2O[C@@H]1c1cc(O)c(O)c(O)c1)c1cc(O)c(O)c(O)c1 [EGCG, epigallocatechin gallate, reference compound] | effectively inhibited |  | 2.5 | 
O=c1c(O[C@@H]2O[C@H](CO)[C@@H](O)[C@H](O)[C@H]2O)c(-c2ccc(O)c(O)c2)oc2cc(O)cc(O)c12 [Isoquercitrin, quercetin-3-O-glycoside] |  |  | 2.5 | 
O=c1c(O)c(-c2ccc(O)c(O)c2)oc2cc(O)cc(O)c12 [Quercetin, quercetin] |  |  | 5.0 | Quercetin concentration in plasma [3]: 5.0 ± 1.0 µM; Effect on HCoV-229E replication at 2.5 μM (HCoV-229E; Huh-7 cells, 2.5 μM): slightly reduce; Inhibition of HCoV-229E replication at concentration higher than 10 μM (HCoV-229E; Huh-7 cells, higher than 10 μM): strongly inhibit; EC50 (HCoV-229E; Human coronavirus 229E, Huh-7, 24 h, read-out: EC50, inhibition of HCoV-229E replication): 4.88 µM
C[C@@H]1O[C@@H](OC[C@H]2O[C@@H](Oc3c(-c4ccc(O)c(O)c4)oc4cc(O)cc(O)c4c3=O)[C@H](O)[C@@H](O)[C@@H]2O)[C@H](O)[C@H](O)[C@H]1O [Rutin, rutin] |  | most effectiveness |  | 
